# Data published in PMC9229894, “In Silico, In Vitro, and Pharmacokinetic Studies of UBMC-4, a Potential Novel Compound for Treating against Trypanosoma cruzi” (Pathogens, 2022).
# “Also recorded” adds a separate entry of the source. Where two headings read alike, the source gives them in different places.
# Tests used:
# [1] = system: T. cruzi Tulahuen strain amastigotes; test: Trypanocidal activity in intracellular amastigotes (β-galactosidase, U937 macrophages); type: cell-based, Trypanosoma cruzi; conditions: Trypanosoma cruzi
# Experimental: To obtain intracellular amastigotes, 2.5 × 10^6 U937 differentiated macrophage cells were infected with T. cruzi epimastigotes (Tulahuen strain producing β-galactosidase, 24 h of growing) in a 5:1 parasite/cell ratio. To calculate EC50, 100 μL of UBMC-4 were added at four serial dilutions ([…]) to each well, and benznidazole (bz) was added at an initial concentration of 20 µg/mL and 6 serial 2-fold dilutions were used to determine its EC50 as a control of the effectiveness of the experiment, in addition to the control of the viability of the parasites (cells without drug treatment), from the blank of the culture medium (medium without cells), in duplicate. The cells were incubated for 72 h at 37 °C with 5% of CO2. All medium was removed and 100 µL of substrate for β-galactosidase diluted in PBS (chlorophenol β-d-galactopyranoside-CPRG network; Sigma-Aldrich, St Louis, MO, USA, at 100 mM and 0.1% Nonidet P-40) was added to each well and incubated at 37 °C for 3 h. The amount of chlorophenol red released was read at 570 nm in a spectrophotometer (Varioskan TM). Infected cells were used as negative control while infected cells treated with benznidazole were used as a positive control (trypanocidal activity) for the assay. RPMI-1640 medium was used as a negative control. Non-specific absorbance was corrected by subtracting the OD of the blank sample. Determinations were done in triplicate in at least two independent experiments.
# The trypanocidal activity was determined based on the percentage of decrease of amastigotes determined using equation, as follows: % reduction of infection = 100 − (O.D. of treated infected cells)/(O.D. of non-treated infected cells) × 100. The half maximal effective concentration (EC50) was calculated by the linear regression model Probit using Graphpad Prism software.
# T. cruzi epimastigotes [2] = test: Scanning and transmission electron microscopy of epimastigotes under nutritional stress; type: cell-based, Trypanosoma cruzi; conditions: 10 µM, nutritional stress (PBS) 6 h
# Experimental: Epimastigotes untreated and treated with 10 uM of UBMC-4 under nutritional stress conditions (culture medium substitution for PBS for 6 h) were fixed for 2 h using 2.5% glutaraldehyde in cacodylate buffer 0.1 M. Parasites adhered for 10 min onto coverslips previously coated with 0.1% poly-L-lysin and subsequently washed with cacodylate buffer and dehydrated using 30%, 50%, 70%, and 90% (v/v) acetone for 5 min on each incubation. Subsequently, the cells were critically dried under CO2 and attached to the heel of the SEM instrument. Finally, samples were coated with a 20 nm-thick gold layer and analyzed in a Jeol JSM6010Plus-LA scanning electron microscope at 20 kV. For TEM, parasites were fixed for 2 h with glutaraldehyde and cacodylate buffer and then treated for 1 h with 1% OsO4 diluted in the same buffer. Parasites were dehydrated as above and then embedded in PolyBed-812 resin. Ultrathin sections were collected in copper grids and stained with 5% aqueous uranyl acetate and lead citrate. Samples were examined in a Jeol JEM-1400plus transmission electron microscope at 80 kV.
# T. cruzi epimastigotes [3] = test: Flow cytometry of apoptosis-like markers in epimastigotes (Hoechst, DiOC6, PI); type: cell-based, Trypanosoma cruzi; conditions: 10 µM, 24 h
# Experimental: Apoptosis-like markers were analyzed by triple staining using 3,3′-dihexyloxacarbocyanine (DiOC6), propidium iodide (PI), and Hoechst from Thermo Fisher Scientific to determine the change of mitochondrial membrane potential (ΔΨm), cell membrane damage, and impairment of cell cycle, respectively. All readings were performed on a BD FACSCanto II 4/2/2 Sys IVD flow cytometer, and data obtained were analyzed using the FlowJo7.6.2 software. Differences between treatments were determined by a two-way ANOVA for multiple comparisons with 95% significance using GraphPad Prism 8. In all cases, 20 µL of parasites (5 × 10^6/mL) were stained per treatment with 300 µL of Hanks’ balanced saline solution (HBSS) and 10 µL of the staining mix containing […], 0.5 µL of 70 nM DiOC6, and 0.5 µL of 10 mg/mL Hoechst. Subsequently, parasites were incubated at room temperature for 15 min until reading.
# T. cruzi epimastigotes in exponential growth phase were used to submit the parasites to a treatment under nutritional stress and further challenging the culture with the inhibitor UBMC-4 and the control drug bz. Nutritional stress was induced by starving the parasites in PBS. Parasites were grown either in complete RPMI medium or PBS (with and without 10 µM UBMC-4) for 24 h at 28 °C. Three independent biological replicates were analyzed per treatment. The experiments were performed in 24-well plates at an initial concentration of 1 × 10^7 total parasites in 2 mL/well. Parasites were centrifuged at 1800 RCF for 5 min, washed once with PBS buffer, and then resuspended in a final volume of 2 mL for further labeling and flow cytometry.
# T. cruzi epimastigotes [4] = test: Intracellular ROS production in epimastigotes (H2DCFDA); type: cell-based, Trypanosoma cruzi; conditions: 10 µM, 24 h
# Experimental: A total of 1.4 × 10^6 epimastigotes grown under normal and stress nutritional conditions were treated with 10 µM UBMC-4 for 24 h and the intracellular ROS concentration was determined by fluorometric testing with the diacetate 2′,7′-dichlorodihydrofluorescein (H2DCFDA) probe at 0.2 µg/mL. As controls, cell cultures both treated with no probe as well as only labeled with H2DCFDA were performed to determine baseline fluorescence. A ROS-production positive control was set up by challenging parasites with […] rotenone (a ROS inducer) for 1 h prior to labeling and reading. After the treatment, parasites were washed and resuspended in 100 µL of the H2DCFDA-containing solution, transferred to 96-well plates protected from the light, and then incubated for 1 h at 37 °C. The test readout was collected using an ELISA plate reader at an excitation wavelength of 495 nm and emission wavelength of 527 nm, respectively. Each treatment was performed in triplicate, and data were reported in arbitrary units of fluorescence.
# Solubility remark = type: physicochemical
compound,measurement,setting,value
"Oc1ccc(-c2nc(-c3ccc4sc5ccccc5c4c3)c(-c3ccccc3)[nH]2)cc1 [UBMC-4, 4-(4-dibenzo-[b,d]-thien-2-yl-5-phenyl-1H-imidazol-2-yl)phenol]",EC50,"[1]; TULAHUEN, U-937, 72 h, read-out: EC50 half maximal effective concentration for T. cruzi amastigotes",1.85 ± 1 µM
same,EC50,"[1]; U-937, intracellular amastigotes, Tulahuen strain, same value in mass units, read-out: EC50 for T. cruzi amastigotes",0.774 µg/mL
same,"morphology and ultra-structure changes (SEM, TEM)",T. cruzi epimastigotes [2],"progressive alterations such as flagellum inactivation, cell size reduction, nuclear structure alteration, condensation of chromatin towards the nuclear periphery, vacuole formation, mitochondrial swelling with kinetoplast integrity loss; also recorded: non-reversible morphological damage"
same,changes in apoptosis-like markers,T. cruzi epimastigotes [3]; normal culture conditions,no changes in apoptosis-like markers
same,"DNA fragmentation (hypodiploid, Sub G0/G1), % of population",T. cruzi epimastigotes [3]; nutritional stress,up to 39.4%
same,"cell membrane damage (PI), % of population",T. cruzi epimastigotes [3]; nutritional stress,38.4%
same,"mitochondrial depolarization (DiOC6), % of population",T. cruzi epimastigotes [3]; nutritional stress,99.9%
same,"intracellular ROS concentration, treated vs untreated",T. cruzi epimastigotes [4]; normal nutritional conditions,No significant differences
same,intracellular ROS concentration compared to untreated parasites,T. cruzi epimastigotes [4]; nutritional stress,twofold ROS concentration
same,solubility,Solubility remark,slight solubility problems
